Test results published in US5037980A, “Phenyl imidazo[1,2-a]pyrimidines” (American Cyanamid Company, priority 1988, dated 1991).

What was measured:
brain-specific receptors = assay: Inhibition of the binding of 3H-benzodiazepine to brain-specific receptors of rats; set-up: species or system rat (Wistar); settings: 3H-flunitrazepam, rat whole cortex P2-synaptosomal fraction, pH 7.5, 30 minutes, 0° C.; test compound concentration not given
[1] = system: spontaneously hypertensive rats; assay: Mean arterial blood pressure in spontaneously hypertensive rats; assay type: in vivo, Okamoto strain); settings: 100 mg/kg by gavage at 0 and 24 hours, measured at 28 hours, 1 rat; average of SHR used 170+1.5 mm of mercury
Method: The novel compounds of the present invention were tested for hypotensive activity by the method of P. S. Chan and D. W. Poorwin, Clin. Exptl. Hypertension, 1 (6): 817 (1979). Male, 16-20 week old, spontaneously hypertensive rats (SHR) of the Okamoto strain, from Taconic Farms, Germantown, New York, having an average mean arterial blood pressure of 170+1.5 mm of mercury are used in the test. One male adult SHR weighing about 300 g is dosed by gavage with a test compound, suspended in 2% pre-boiled starch at a concentration of 50 mg/ml, at a dose of 100 mg/kg of body weight or less, with 0.9% sodium chloride loading at a dose of 25 ml/kg of body weight, at zero hours. A second indentical dose of the test compound, without sodium chloride loading in given 24 hours later. At 28 hours after the initial dose the mean arterial blood pressure is measured by the method of Chan and Poorwin vide supra. The results of this test on representative compounds of the present invention appear below in Table IV.

[2] = system: clonic seizures caused by pentylenetetrazole in rats; assay: Protection against clonic seizures caused by pentylenetetrazole in rats; assay type: in vivo, rat; settings: oral or i.p., pentylenetetrazole 23 mg/kg i.v. at 30 or 60 minutes
Method: The anti-anxiety properties of the novel compounds of the present invention have been established in a test which indicates anxiolytic activity by the measure of protection from convulsions resulting from the administration of pentylenetetrazole. Single or graded dose levels of the test compounds were administered orally or intraperitoneally in a 2% starch vehicle containing 0.5% v/v polyethylene glycol and one drop of polysorbate 80 or distilled water and one drop of polysorbate 80 to groups of at least 4 rats. At 30 or 60 minutes, the rats were treated intravenously with pentylenetetrazole at a dose of 23 mg/kg of body weight. This dose is estimated to cause clonic seizures in 99% of unprotected rats. It has been reported [R. T. Hill and D. H. Tedeschi, "Animal Testing and Screening Procedures in Evaluating Psychotropic Drugs" in "An Introduction to Psychopharmacology", Eds. R. R. Rech and K. E. Moore, Raven Press, New York, pp 237-288 (1971)] that there is a high degree of correlation between antagonism of pentylenetetrazole seizures in rats and anti-anxietyeffects in higher warm-blooded animals.

rats = assay: Non-conditioned passive avoidance test in rats; assay type: in vivo, rat (Wistar); set-up: key: Active: considered active if the number of shocks received by the test group is significantly higher than the control group by the Mann-Whitney U test; settings: oral or i.p., 30 or 60 minutes before test
Method: Another test used to assess anti-anxiety effects is a non-conditioned passive avoidance procedure described by J. R. Vogel, B. Beer and D. E. Clody. "A Simple and Reliable Conflict Procedure for Testing Anti-Anxiety Agents", Psychopharmacologia, 21, 1-7 (1971). A conflict situation is induced in rats by a modification of this method.
Groups of 8 naive, Wistar strain male rats weighing 200-240 g each were deprived of water for 48 hours. The test compounds were administered in single or graded, oral or intraperitoneal doses, suspended in distilled water and one drop of polysorbate 80. Control animals received the vehicle alone. At 30 or 60 minutes each rat was placed in an individual clear plexiglass chamber. Tap water was available ad libitum from a nipple located in a black plexiglass box off the main chamber. A 0.7 milliampere AC shocking current was established between the stainless steel grid floor and the tap. After 20 licks of non-shocked drinking, a 2 second shocking current was administered to the rat. This ratio of 20 licks of non-shocked drinking followed by a 2 second shock was continued for a total of 3 minutes. The number of shocks taken by each rat during the 3 minute interval was recorded and compared to a control group.

Structure (SMILES)	% Inhibition of 3H-benzodiazepine binding (brain-specific receptors) [%]	Mean Arterial Blood Pressure [1]	other results
Cc1cc(-c2ccccc2F)n2ccnc2n1 [5-(2-Fluorophenyl)-7-methyl imidazo[1,2-a]pyrimidine]	13	–	–
Cc1cc(-c2ccc(Cl)c(Cl)c2)n2ccnc2n1 [5-(3,4-Dichlorophenyl)-7-methyl-imidazo-[1,2-a]pyrimidine]	22	119	–
COc1cc(-c2ccnc3nccn23)cc(OC)c1OC [5-(3,4,5-Trimethoxyphenyl)imidazo-[1,2-a]pyrimidine]	–	147	% of Rats Protected ([2]; dose 25 mg/kg): 75%
COc1ccc(-c2cc(C)nc3nccn23)cc1OC [5-(3,4-Dimethoxyphenyl)-7-methyl-imidazo[1,2-a]pyrimidine]	46	148	–
Cc1cc(-c2ccccc2)n2ccnc2n1 [7-Methyl-5-phenylimidazo[1,2-a]-pyrimidine]	43	–	–
Cc1cc(-c2cccc(C(F)(F)F)c2)n2ccnc2n1 [7-Methyl-5-[3-(trifluoromethyl)phenyl]imidazo[1,2-a]pyrimidine]	42	127	–
COc1cc(-c2cc(C)nc3nccn23)cc(OC)c1OC [7-Methyl-5-(3,4,5-trimethoxy-phenyl)imidazo[1,2-a]pyrimidine]	10	–	Result (non-conditioned passive avoidance) (rats; dose 35.0 mg/kg): Active
FC(F)(F)c1cccc(-c2ccnc3nccn23)c1 [5-(α,α,α-Trifluoro-m-tolyl)imidazo[1,2-a]pyrimidine]	46	126	% of Rats Protected ([2]; dose 50 mg/kg): 100%; Result (non-conditioned passive avoidance) (rats; dose 25.0 mg/kg): Active
Fc1ccccc1-c1ccnc2nccn12 [5-(2-Fluorophenyl)imidazo[1,2-a]-pyrimidine]	49	121	–
Clc1ccc(-c2ccnc3nccn23)c(Cl)c1 [5-(2,4-Dichlorophenyl)imidazo-[1,2-a]pyrimidine]	11	111	–
Brc1ccc(-c2ccnc3nccn23)cc1 [5-(4-Bromophenyl)imidazo[1,2-a]-pyrimidine]	–	97	–
Clc1cccc(-c2ccnc3nccn23)c1 [5-(3-Chlorophenyl)imidazo[1,2-a]-pyrimidine]	37	146	% of Rats Protected ([2]; dose 25 mg/kg): 50%; Result (non-conditioned passive avoidance) (rats; dose 25.0 mg/kg): Active
